Key:
[1] = molecular target: T1, Electric eel AChE (Type-VI-S, EC 3.1.1.7) (Electrophorus electricus, UniProt O42275); test: Ellman assay, Lineweaver-Burk plot, EZ-Fit; type: biochemical; details: control without extract, 0.05 M Tris-HCl pH 8.0, RT; unreliable (printed unit nM implausible beside mM substrate)
T1 construct: commercial native enzyme, Sigma Type VI-S
From the text: Ellman assay, Lineweaver-Burk plot, EZ-Fit on Electric eel AChE (Type-VI-S, EC 3.1.1.7)

[2] = molecular target: T2, horse serum BuChE (EC 3.1.1.8) (Equus caballus, UniProt P81908); test: Ellman assay, Lineweaver-Burk plot, EZ-Fit; type: biochemical; details: control without extract, 0.05 M Tris-HCl pH 8.0, RT; unreliable (printed unit nM implausible beside mM substrate)
T2 construct: gene BCHE; commercial native enzyme from horse serum, Sigma
T2 sequence (P81908 whole entry): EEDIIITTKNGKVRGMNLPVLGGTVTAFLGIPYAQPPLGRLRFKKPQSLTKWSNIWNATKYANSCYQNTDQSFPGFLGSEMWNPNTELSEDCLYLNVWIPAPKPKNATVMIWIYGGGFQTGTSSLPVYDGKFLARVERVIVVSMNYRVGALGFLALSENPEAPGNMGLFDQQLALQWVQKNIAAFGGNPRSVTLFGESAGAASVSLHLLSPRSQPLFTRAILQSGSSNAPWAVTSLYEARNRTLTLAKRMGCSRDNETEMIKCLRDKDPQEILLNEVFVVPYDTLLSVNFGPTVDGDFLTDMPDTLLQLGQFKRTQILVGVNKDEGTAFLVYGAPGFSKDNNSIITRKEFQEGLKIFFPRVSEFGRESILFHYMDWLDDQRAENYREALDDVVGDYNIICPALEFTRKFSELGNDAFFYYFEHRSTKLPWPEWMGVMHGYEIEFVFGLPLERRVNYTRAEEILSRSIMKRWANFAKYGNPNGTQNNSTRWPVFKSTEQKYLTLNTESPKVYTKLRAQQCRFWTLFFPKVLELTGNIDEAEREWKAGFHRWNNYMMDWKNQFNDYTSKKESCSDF
From the text: Ellman assay, Lineweaver-Burk plot, EZ-Fit on horse serum BuChE (EC 3.1.1.8)

T1 sequence (O42275 24-633): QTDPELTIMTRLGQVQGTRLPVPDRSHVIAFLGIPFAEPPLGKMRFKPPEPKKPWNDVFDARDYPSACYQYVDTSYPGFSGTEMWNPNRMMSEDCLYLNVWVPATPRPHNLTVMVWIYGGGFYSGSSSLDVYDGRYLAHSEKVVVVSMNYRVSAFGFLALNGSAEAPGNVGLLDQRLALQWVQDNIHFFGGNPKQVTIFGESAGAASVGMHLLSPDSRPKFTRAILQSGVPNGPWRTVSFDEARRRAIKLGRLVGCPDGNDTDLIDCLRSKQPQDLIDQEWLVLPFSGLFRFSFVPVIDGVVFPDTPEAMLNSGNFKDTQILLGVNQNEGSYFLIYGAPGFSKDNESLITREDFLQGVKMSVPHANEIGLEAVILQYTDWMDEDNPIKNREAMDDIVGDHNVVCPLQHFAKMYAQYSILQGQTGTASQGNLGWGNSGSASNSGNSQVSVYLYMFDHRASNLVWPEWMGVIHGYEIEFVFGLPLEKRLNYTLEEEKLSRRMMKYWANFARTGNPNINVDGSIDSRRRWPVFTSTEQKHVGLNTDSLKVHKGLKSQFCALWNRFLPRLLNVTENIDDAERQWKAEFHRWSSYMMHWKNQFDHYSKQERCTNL

Structure (SMILES)	AChE / Control [1]	BuChE / Control [2]
CC(=O)SCC[N+](C)(C)C [acetylthiocholine iodide]	0.8774 ± 0.41 nM	
CCCC(=O)SCC[N+](C)(C)C [butyrylthiocholine iodide]		3.12 ± 0.87 nM
